Results from patent publication US20080213815A1, “DIAGNOSING BREAST CANCER BY SEPRASE LEVEL” (DUBLIN CITY UNIVERSITY, priority 2007, published 2008).
Where two headings read alike, the source gives them in different places. Where a SMILES comes first, the peptide text is derived from it. The star is where a group is joined. AFC = O=c1cc(C(F)(F)F)c2ccc(N*)cc2o1

Experiments:
Seprase = molecular target: T1, Seprase (Homo sapiens, UniProt Q12884); test: Seprase activity towards fluorogenic substrates; type: biochemical; details: compared with substrate Z-Gly-Pro-AMC
T1 sequence (Q12884 1-760): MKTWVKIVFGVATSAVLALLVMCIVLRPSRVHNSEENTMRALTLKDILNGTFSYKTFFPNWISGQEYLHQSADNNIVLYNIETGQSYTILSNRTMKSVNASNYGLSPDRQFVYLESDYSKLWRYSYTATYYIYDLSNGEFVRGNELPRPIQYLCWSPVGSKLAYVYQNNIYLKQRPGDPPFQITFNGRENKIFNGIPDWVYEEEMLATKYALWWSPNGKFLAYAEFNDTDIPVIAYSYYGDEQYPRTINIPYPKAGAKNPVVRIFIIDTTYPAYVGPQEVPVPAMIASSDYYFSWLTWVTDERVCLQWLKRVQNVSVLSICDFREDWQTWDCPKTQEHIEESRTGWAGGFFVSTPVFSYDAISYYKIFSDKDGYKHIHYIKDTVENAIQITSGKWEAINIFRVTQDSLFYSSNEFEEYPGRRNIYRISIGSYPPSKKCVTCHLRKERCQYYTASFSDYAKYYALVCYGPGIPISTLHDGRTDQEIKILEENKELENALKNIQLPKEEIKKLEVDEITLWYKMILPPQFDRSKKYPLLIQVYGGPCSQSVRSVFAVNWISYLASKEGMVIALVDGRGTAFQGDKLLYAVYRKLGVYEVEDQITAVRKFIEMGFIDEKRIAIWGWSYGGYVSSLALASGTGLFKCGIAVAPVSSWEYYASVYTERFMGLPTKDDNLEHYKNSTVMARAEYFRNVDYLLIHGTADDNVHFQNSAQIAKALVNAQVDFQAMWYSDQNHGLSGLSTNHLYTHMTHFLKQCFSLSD
From the text: The substrate used for the test is Benzyloxycarbonyl (Z)-Gly-Pro-7-amino-4-methylcoumarin (AMC) [Z-Gly-Pro-AMC]. […] This substrate is for a completely different enzyme, namely DPPII.

Prolyl Oligopeptidase = molecular target: T2, Prolyl Oligopeptidase (Homo sapiens, UniProt P48147)
T2 sequence (P48147 1-710): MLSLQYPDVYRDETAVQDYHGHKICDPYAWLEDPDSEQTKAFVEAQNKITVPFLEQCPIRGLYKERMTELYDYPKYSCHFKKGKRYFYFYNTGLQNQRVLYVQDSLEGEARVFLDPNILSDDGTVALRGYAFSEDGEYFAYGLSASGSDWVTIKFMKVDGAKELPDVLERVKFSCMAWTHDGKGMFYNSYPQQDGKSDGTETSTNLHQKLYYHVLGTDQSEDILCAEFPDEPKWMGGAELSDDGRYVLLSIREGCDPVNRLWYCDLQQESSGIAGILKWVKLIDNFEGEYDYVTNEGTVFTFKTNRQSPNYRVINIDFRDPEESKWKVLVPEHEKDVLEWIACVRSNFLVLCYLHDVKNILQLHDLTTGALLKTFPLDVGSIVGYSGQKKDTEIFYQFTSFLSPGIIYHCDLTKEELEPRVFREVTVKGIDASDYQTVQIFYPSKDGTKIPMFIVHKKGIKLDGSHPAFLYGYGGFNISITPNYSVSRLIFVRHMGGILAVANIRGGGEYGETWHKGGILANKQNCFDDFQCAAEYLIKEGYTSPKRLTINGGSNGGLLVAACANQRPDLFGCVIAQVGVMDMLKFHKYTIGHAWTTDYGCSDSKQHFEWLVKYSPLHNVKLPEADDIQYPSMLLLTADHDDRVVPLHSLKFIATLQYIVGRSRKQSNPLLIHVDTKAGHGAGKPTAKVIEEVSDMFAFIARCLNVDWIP

[1] = molecular target: T3, PO (Prolyl Oligopeptidase) (Homo sapiens, UniProt P48147); test: Fluorimetric Z-Gly-Pro-AMC assay in serum with PO inhibitor; type: biochemical; details: JTP-4819 at a concentration of 4×10^−6M in the assay; 100 μM Z-Gly-Pro-AMC, 37° C.
T3 construct: from tissue; host or cells: serum
T3 sequence (P48147 1-710): T2 sequence (P48147 1-710)
Protocol: A 25 μl aliquot of serum was pre-incubated for 15 minutes at 37° C. with 5 μl of 2.5×10^−4M JTP-4819 in 10% v/v MeOH in a 96 well microtitre plate prior to substrate addition. Next, 100 μl of 100μM Z-Gly-Pro-AMC substrate in 4% MeOH was added to the sample and the microtitre plate was incubated at 37° C. for 60 mins. Reactions were terminated by the addition of 170 μl of 1.5M acetic acid. Blanks or negative controls were prepared by adding 170 μl of 1.5M acetic acid to 25 μl of enzyme sample prior to substrate addition and incubation at 37° C. for 60 mins. The assay is performed in triplicate and at three different times. […] This concentration is obtained by adding 5 μl of 2.5×10^−4 M JTP-4819 to the assay.
Fluorimetric analysis of these samples was achieved using a Perkin Elmer LS50 Fluorescence Spectrophotometer at excitation and emission wavelengths of 370 nm and 440 nm respectively. Excitation slit widths were maintained at 10 nm while emission slit widths were adjusted accordingly for the range being analysed.
End point measurements were allowed, as the enzyme assay was linear with respect to time and enzyme concentration up to 60 mins. Fluorimetric intensities observed were converted to nanomoles AMC released per minute per ml using the appropriate standard curve. Enzyme units were defined as nanomoles of AMC released per minute at 37° C.

[2] = Prolyl Oligopeptidase specific inhibitors, Table 5, Bacterial Inhibitor; cited from earlier work
[3] = Prolyl Oligopeptidase specific inhibitors, Table 5; read-out: Potency Ki; cited from earlier work
[4] = Prolyl Oligopeptidase specific inhibitors, Table 5; read-out: Potency IC50; cited from earlier work

For `C[C@H](N)C(=O)N1CCC[C@H]1C(=O)Nc1ccc2c(C(F)(F)F)cc(=O)oc2c1` [Ala-Pro-7-amino-4-trifluoromethylcoumarin] (H-Ala-Pro-{AFC}), the “Seprase activity towards substrate” value (Seprase) was “markedly less activity”.
In the case of `CC(C)CC/C=C/C(=O)NC1CCCNC(=O)C(CC(C)C)NC(=O)C(=O)C(C)NC1=O` (stereo not drawn) [Eurystatin A], the “Potency IC50” value (Prolyl Oligopeptidase; [2]) is given as “IC50 = 0.004 μg/mL”.
In the case of `CCC(C)CC/C=C/C(=O)NC1CCCNC(=O)C(CC(C)C)NC(=O)C(=O)C(C)NC1=O` (stereo not drawn) [Eurystatin B], the “Potency IC50” value (Prolyl Oligopeptidase; [2]) is listed as “IC50 = 0.002 μg/mL”.
In the case of `CC(NC(=O)OCC1c2ccccc2-c2ccccc21)C(=O)N1CCCC1C#N` (stereo not drawn) [Fmoc-Ala-Pro-CN], the Ki (Prolyl Oligopeptidase; [3]) is listed as 5 nM.
For `N#CC1CCCN1C(=O)C1CCCN1C(=O)OCC1c2ccccc2-c2ccccc21` (stereo not drawn) [Fmoc-Pro-Pro-CN], the Ki (Prolyl Oligopeptidase; [3]) is listed as 5 nM.
In the case of `O=C(CO)[C@@H]1CCCN1C(=O)[C@@H]1CCCN1C(=O)NCc1ccccc1` [JTP-4819], the “PO sensitivity to inhibitor” value [1] is given as “sensitive”, the IC50 (Prolyl Oligopeptidase; [4]) is given as 0.83 nM and the Ki (Prolyl Oligopeptidase; [3]) is given as 0.045 nM.
In the case of `O=C[C@@H]1CCCN1C(=O)CCC(=O)NCc1ccc(Cl)cc1` [ONO-1603], the IC50 (Prolyl Oligopeptidase; [4]) is given as 57 nM.
For `COc1cccc2c1C(=O)c1ccc3c(c1C2=O)C(=O)C[C@@H](C)[C@H]3O` [SNA-8073-B], the Ki (Prolyl Oligopeptidase; [3]) is given as 8000 nM.
In the case of `CN[C@@H]1C[C@H]2O[C@@](C)([C@@H]1OC)n1c3ccccc3c3c4c(c5c6ccccc6n2c5c31)C(=O)NC4` [Staurosporine], the Ki (Prolyl Oligopeptidase; read-out: Potency Ki; Prolyl Oligopeptidase specific inhibitors, Table 5; cited from earlier work) is listed as 700 nM.
For `O=CC1CCCN1C(=O)C1Cc2ccccc2N1C(=O)OCc1ccccc1` (stereo not drawn) [Z-Indolinyl-Prolinal], the Ki (Prolyl Oligopeptidase; [3]) is given as 2.4 nM.
For `O=C(C1CCCN1C(=O)OCc1ccccc1)N1CCC(F)C1` (stereo not drawn) [Z-Pro-3-fluoropyrrolidine], the Ki (Prolyl Oligopeptidase; [3]) is given as 0.8 nM.
For Postatin, the “Potency IC50” value (Prolyl Oligopeptidase; [2]) is listed as “IC50 = 0.03 μg/mL”.
In the case of Propeptin, the Ki (Prolyl Oligopeptidase; [3]) is given as 700 nM.
